Reference: US20250171495A1, “MUTLI-TARGETED SERINE PROTEASE INHIBITORS FOR TREATMENT OF CANCER AND VIRAL INFECTION” (Washington University, priority 2023, published 2025)
Where “and” joins values, the source holds several entries; their conditions need not be identical. Equal entries are not always repeated.

Key:
Assay type in all cases: biochemical
hepsin = biological target: T1, hepsin (Homo sapiens, UniProt P05981); experiment: HyCoSuL P4-P2 substrate specificity screening, hepsin; settings: for P2 Position Substrate Activity for hepsin (percent substrate cleavage/proteolysis): residue fixed at P2 position; for P2 Position Substrate Activity for hepsin (percent substrate cleavage/proteolysis) / P3 Position Substrate Activity for hepsin (percent substrate cleavage/proteolysis) / P4 Position Substrate Activity for hepsin (percent substrate cleavage/proteolysis): P1-Arg HyCoSuL, 100 μM, best recognized amino acid set to 100%; for P3 Position Various Amino Acids Substrate Activity, hepsin (percent substrate cleavage/proteolysis): residue fixed at P3 position of substrate library; for P4 Position Various Amino Acids Substrate Activity, hepsin (percent substrate proteolysis/cleavage): residue fixed at P4 position of substrate library; for P3 Position Substrate Activity for hepsin (percent substrate cleavage/proteolysis): residue fixed at P3 position; for P4 Position Substrate Activity for hepsin (percent substrate cleavage/proteolysis): residue fixed at P4 position
T1 construct: purchased R&D Systems 4776-SE-010
T1 sequence (P05981 163-417 limits assumed): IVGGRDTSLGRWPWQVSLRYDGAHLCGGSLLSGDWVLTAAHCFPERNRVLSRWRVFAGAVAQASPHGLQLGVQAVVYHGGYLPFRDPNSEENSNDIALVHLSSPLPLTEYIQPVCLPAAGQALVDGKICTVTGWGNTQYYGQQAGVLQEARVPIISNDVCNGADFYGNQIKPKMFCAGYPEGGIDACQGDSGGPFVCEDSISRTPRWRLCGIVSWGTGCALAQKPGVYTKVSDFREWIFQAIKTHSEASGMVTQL
T1 sequence (P05981 1-162 partner limits assumed): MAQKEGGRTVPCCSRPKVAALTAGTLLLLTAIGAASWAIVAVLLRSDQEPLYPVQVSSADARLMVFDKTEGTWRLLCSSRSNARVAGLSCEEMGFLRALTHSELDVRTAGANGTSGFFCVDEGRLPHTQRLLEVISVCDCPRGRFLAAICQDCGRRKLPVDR

TMPRSS2 = TMPRSS2 (Homo sapiens, UniProt O15393); experiment: PS-SCL / HyCoSuL substrate specificity screening, TMPRSS2; settings: for P2 Position Substrate Activity for TMPRSS2 (percent substrate cleavage/proteolysis): residue fixed at P2 position of substrate library; for P2 Position Substrate Activity for TMPRSS2 (percent substrate cleavage/proteolysis) / P3 Position Substrate Activity for TMPRSS2 (percent substrate cleavage/proteolysis) / P4 Position Substrate Activity for TMPRSS2 (percent substrate cleavage/proteolysis): best recognized amino acid set to 100%; for P3 Position Various Amino Acids Substrate Activity, TMPRSS2 (percent substrate cleavage/proteolysis) / P3 Position Substrate Activity for TMPRSS2 (percent substrate cleavage/proteolysis): residue fixed at P3 position of substrate library; for P4 Position Various Amino Acids Substrate Activity, TMPRSS2 (percent substrate proteolysis/cleavage) / P4 Position Substrate Activity for TMPRSS2 (percent substrate cleavage/proteolysis): residue fixed at P4 position of substrate library
TMPRSS2, sequence (O15393 whole entry): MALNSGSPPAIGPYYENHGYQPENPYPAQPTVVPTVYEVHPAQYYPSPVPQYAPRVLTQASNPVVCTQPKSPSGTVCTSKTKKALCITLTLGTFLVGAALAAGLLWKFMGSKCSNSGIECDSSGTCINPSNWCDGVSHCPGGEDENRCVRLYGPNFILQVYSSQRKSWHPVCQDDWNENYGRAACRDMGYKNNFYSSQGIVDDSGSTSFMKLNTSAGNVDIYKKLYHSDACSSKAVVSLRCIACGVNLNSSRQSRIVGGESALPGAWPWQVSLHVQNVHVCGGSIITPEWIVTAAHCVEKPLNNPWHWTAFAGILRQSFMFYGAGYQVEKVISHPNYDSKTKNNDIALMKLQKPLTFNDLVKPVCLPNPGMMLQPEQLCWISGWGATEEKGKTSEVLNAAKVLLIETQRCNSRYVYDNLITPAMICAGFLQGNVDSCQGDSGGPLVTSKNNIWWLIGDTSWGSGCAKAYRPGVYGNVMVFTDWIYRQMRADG

HGFA = biological target: T2, HGFA (Homo sapiens, UniProt Q04756); experiment: HyCoSuL P4-P2 substrate specificity screening, HGFA; settings: for P2 Position Substrate Activity for HGFA (percent substrate cleavage/proteolysis): residue fixed at P2 position; for P2 Position Substrate Activity for HGFA (percent substrate cleavage/proteolysis) / P3 Position Substrate Activity for HGFA (percent substrate cleavage/proteolysis) / P4 Position Substrate Activity for HGFA (percent substrate cleavage/proteolysis): P1-Arg HyCoSuL, 100 μM, best recognized amino acid set to 100%; for P3 Position Various Amino Acids Substrate Activity, HGFA (percent substrate cleavage/proteolysis): residue fixed at P3 position of substrate library; for P4 Position Various Amino Acids Substrate Activity, HGFA (percent substrate proteolysis/cleavage): residue fixed at P4 position of substrate library; for P3 Position Substrate Activity for HGFA (percent substrate cleavage/proteolysis): residue fixed at P3 position; for P4 Position Substrate Activity for HGFA (percent substrate cleavage/proteolysis): residue fixed at P4 position
T2 sequence (Q04756 373-655): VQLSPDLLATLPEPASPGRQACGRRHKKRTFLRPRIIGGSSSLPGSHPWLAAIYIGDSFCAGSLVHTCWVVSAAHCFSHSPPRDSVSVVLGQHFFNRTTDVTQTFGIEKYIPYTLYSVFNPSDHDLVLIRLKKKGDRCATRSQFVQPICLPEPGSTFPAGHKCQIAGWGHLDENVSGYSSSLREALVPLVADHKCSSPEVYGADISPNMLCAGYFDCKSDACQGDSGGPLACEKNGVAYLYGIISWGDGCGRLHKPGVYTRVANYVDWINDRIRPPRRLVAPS

matriptase = biological target: T3, matriptase (Homo sapiens, UniProt Q9Y5Y6); experiment: HyCoSuL P4-P2 substrate specificity screening, matriptase; settings: for P2 Position Substrate Activity for matriptase (percent substrate cleavage/proteolysis): residue fixed at P2 position; for P2 Position Substrate Activity for matriptase (percent substrate cleavage/proteolysis) / P3 Position Substrate Activity for matriptase (percent substrate cleavage/proteolysis) / P4 Position Substrate Activity for matriptase (percent substrate cleavage/proteolysis): P1-Arg HyCoSuL, 100 μM, best recognized amino acid set to 100%; for P3 Position Various Amino Acids Substrate Activity, matriptase (percent substrate cleavage/proteolysis): residue fixed at P3 position of substrate library; for P4 Position Various Amino Acids Substrate Activity, matriptase (percent substrate proteolysis/cleavage): residue fixed at P4 position of substrate library; for P3 Position Substrate Activity for matriptase (percent substrate cleavage/proteolysis): residue fixed at P3 position; for P4 Position Substrate Activity for matriptase (percent substrate cleavage/proteolysis): residue fixed at P4 position
T3 sequence (Q9Y5Y6 1-855): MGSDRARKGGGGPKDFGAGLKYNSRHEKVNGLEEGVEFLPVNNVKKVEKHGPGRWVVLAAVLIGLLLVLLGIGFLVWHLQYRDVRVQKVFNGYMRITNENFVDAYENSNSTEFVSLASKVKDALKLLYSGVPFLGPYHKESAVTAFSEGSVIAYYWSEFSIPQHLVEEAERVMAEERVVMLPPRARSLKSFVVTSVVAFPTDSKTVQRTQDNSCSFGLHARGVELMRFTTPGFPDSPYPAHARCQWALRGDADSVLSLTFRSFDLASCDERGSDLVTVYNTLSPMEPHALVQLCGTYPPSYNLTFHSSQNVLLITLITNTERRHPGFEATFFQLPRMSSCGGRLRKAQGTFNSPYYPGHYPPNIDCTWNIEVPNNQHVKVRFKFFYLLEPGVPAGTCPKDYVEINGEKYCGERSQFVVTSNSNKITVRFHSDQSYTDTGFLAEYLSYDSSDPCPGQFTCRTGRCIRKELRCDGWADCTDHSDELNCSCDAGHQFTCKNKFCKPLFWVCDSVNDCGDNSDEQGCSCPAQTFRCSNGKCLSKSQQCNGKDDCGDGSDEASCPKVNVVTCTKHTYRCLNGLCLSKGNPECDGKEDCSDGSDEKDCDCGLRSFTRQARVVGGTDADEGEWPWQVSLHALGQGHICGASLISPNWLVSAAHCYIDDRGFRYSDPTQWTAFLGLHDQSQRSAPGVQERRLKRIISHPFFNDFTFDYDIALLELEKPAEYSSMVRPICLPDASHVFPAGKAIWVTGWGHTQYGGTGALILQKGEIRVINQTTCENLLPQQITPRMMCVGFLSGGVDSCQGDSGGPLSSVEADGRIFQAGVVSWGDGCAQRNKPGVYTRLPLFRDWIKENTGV

Row | Compound | P2 Position Substrate Activity for hepsin (percent substrate cleavage/proteolysis) (hepsin) | P3 Position Various Amino Acids Substrate Activity, hepsin (percent substrate cleavage/proteolysis) (hepsin) | P4 Position Various Amino Acids Substrate Activity, hepsin (percent substrate proteolysis/cleavage) (hepsin) | P2 Position Substrate Activity for TMPRSS2 (percent substrate cleavage/proteolysis) (TMPRSS2) | P3 Position Various Amino Acids Substrate Activity, TMPRSS2 (percent substrate cleavage/proteolysis) (TMPRSS2) | P4 Position Various Amino Acids Substrate Activity, TMPRSS2 (percent substrate proteolysis/cleavage) (TMPRSS2) | P2 Position Substrate Activity for HGFA (percent substrate cleavage/proteolysis) (HGFA) | P3 Position Various Amino Acids Substrate Activity, HGFA (percent substrate cleavage/proteolysis) (HGFA) | P4 Position Various Amino Acids Substrate Activity, HGFA (percent substrate proteolysis/cleavage) (HGFA) | P2 Position Substrate Activity for matriptase (percent substrate cleavage/proteolysis) (matriptase) | P3 Position Various Amino Acids Substrate Activity, matriptase (percent substrate cleavage/proteolysis) (matriptase) | P4 Position Various Amino Acids Substrate Activity, matriptase (percent substrate proteolysis/cleavage) (matriptase) | P3 Position Substrate Activity for hepsin (percent substrate cleavage/proteolysis) (hepsin) | P4 Position Substrate Activity for hepsin (percent substrate cleavage/proteolysis) (hepsin) | P3 Position Substrate Activity for TMPRSS2 (percent substrate cleavage/proteolysis) (TMPRSS2) | P4 Position Substrate Activity for TMPRSS2 (percent substrate cleavage/proteolysis) (TMPRSS2) | P3 Position Substrate Activity for HGFA (percent substrate cleavage/proteolysis) (HGFA) | P4 Position Substrate Activity for HGFA (percent substrate cleavage/proteolysis) (HGFA) | P3 Position Substrate Activity for matriptase (percent substrate cleavage/proteolysis) (matriptase) | P4 Position Substrate Activity for matriptase (percent substrate cleavage/proteolysis) (matriptase)
1 | D-Asn | 0.00% | 38.75% | 18.48% | 0.00% | 0.00% | 19.65% | 0.00% | 15.16% | 7.38% | 0% | 2% | 7% | – | – | – | – | – | – | – | –
2 | L-Lys | 46.70% | – | – | 3.79% | – | – | 1.04% | – | – | 6% | 81% | 75% | 80.71% | 75.43% | 27.86% | 14.11% | 44.63% | 18.29% | 76.43% and 80.67% | 75.49%
3 | D-His | 0.00% | 40.09% | 19.33% | 0.00% | 6.35% | 24.51% | 0.00% | 11.09% | 7.79% | 0% | 3% | 7% | – | – | – | – | – | – | – | –
4 | L-hArg | 57.96% | – | – | 13.07% | – | – | 5.83% | – | – | 16% | 44% | 86% | 47.00% | 56.24% | 18.34% | 44.91% | 100.00% | 22.07% | 44.42% | 76.43% and 86.17%
5 | D-Val | 0.00% | 27.04% | 22.58% | 0.00% | 0.00% | 17.70% | 0.00% | 5.76% | 8.25% | 0% | 1% | 7% | – | – | – | – | – | – | – | –
6 | L-Hyp | 38.67% | 4.70% | – | 10.38% | 2.19% | – | 3.95% | 2.18% | – | 2% | 0% | 50% | – | 37.81% | – | 33.28% | – | 10.66% | – | 50.16%
7 | O=C(O)[C@@H]1CCCCN1 [L-Pip] | 10.66% | 1.64% | 34.68% | 24.73% | 0.00% | 15.31% | 1.75% | 0.83% | 9.25% | 10% | 0% | 11% | – | – | – | – | – | – | – | –
8 | D-Leu | 0.00% | 20.14% | 24.76% | 0.00% | 0.00% | 28.04% | 0.00% | 7.08% | 10.56% | 0% | 4% | 9% | – | – | – | – | – | – | – | –
